Laboratory results taken from patent US10118928B2, “Treatment of H. pylori infections using MTAN inhibitors” (ALBERT EINSTEIN COLLEGE OF MEDICINE, INC., priority 2014, dated 2018).
Values after ≈ are worked out from the molar mass of the structure shown. Where two headings read alike, the source gives them in different places.

What was measured:
[1] = Concentration in mouse gastric mucin after a single oral dose; assay type: in vivo; conditions: for concentration at 0.25 h / concentration at 0.5 h / concentration at 1 h / concentration at 2 h / concentration at 4 h / concentration at 8 h / concentration at 12 h / concentration at 24 h: C57/BL6, mouse, gastric mucin, po, 10 mg/kg, mouse; for concentration at 0.25 h: 0.25 h after single dose 10 mg/kg PO; for concentration at 0.5 h: 0.50 h after single dose 10 mg/kg PO; for concentration at 1 h: 1.00 h after single dose 10 mg/kg PO; for concentration at 2 h: 2.00 h after single dose 10 mg/kg PO; for concentration at 4 h: 4.00 h after single dose 10 mg/kg PO; for concentration at 8 h: 8.00 h after single dose 10 mg/kg PO; for concentration at 12 h: 12.0 h after single dose 10 mg/kg PO; for concentration at 24 h: 24.0 h after single dose 10 mg/kg PO
Method: (a) Oral Dosing of Mice with 10 mg/kg Hexyl-SerMe-Immucillin A: Female C57/BL6 mice ranging from 5-6 weeks in age and 18-22 grams in weight (Harlan Laboratories) were dosed by oral gavage with of Hexyl-SerMe-Immucillin A (0.4 mL of a 0.5 mg/mL solution in water for injection).
(b) Mucin Sampling: Mice (3 mice/time point) were euthanized via CO2 inhalation at 0.25, 0.5, 1, 2, 4, 8, 12 and 24 h, then the mucin layer was scraped from the longitudinally dissected stomach using a glass slide, collected and weighed.
(c) Preparation of Gastric Mucin Homogenates: Approximately 30 mg of mouse mucin was weighted into a 2 mL homogenizer tube (prefilled with 3.0 mm i.d. zirconium beads) and mixed with 0.2 mL PBS buffer. This was homogenized for 3 min at 4,000 rpm in a Beadbug D1030 (Benchmark Scientific) homogenizer.
(d) Extraction of Gastric Mucin Homogenates: Samples of mucin homogenate (50 μL) and of internal standard (see below) in water (10 μL) were treated with trichloroacetic acid (30% w/v, 30 μL), diluted with water (160 μL), vortexed for 10 sec and sonicated for 10 min, then centrifuged at 14,500 rpm for 5 min. A sample of the supernatant (160 μL) was transferred into autosampler vials. The internal standard was Butylthio-DADMe-Immucillin-H at 5.0 and 20.0 μg/mL.
(f) HPLC-MS-MS Analysis: Aliquots of supernatant (10 μL) were injected for analysis on Surveyor HPLC system (Thermo) fitted with an ACE 3 C18 Column (50×3 mm, 3 μm particles), with gradient elution at 30° C. with 400 μL/min mobile phase comprised of mixtures of 0.1% trifluoroacetic acid in water (A) and methanol (B) as follows: 0-5 min, A:B 9:1; 5-6.1 min, A:B 1:9; 6.1-10 min A:B 9:1. Hexyl-SerMe-Immucillin A eluted at 4.41±0.003 min. Detection was ESI MS/MS using a LCQ Deca (Thermo) in selected-reaction monitoring (SRM) positive mode using the MS/MS event m/z 292.2→147.2 and ion spray voltage of 4.5 kV.

[2] = system: H. pylori UNT189-1 (ATCC43504); experiment: MIC by agar dilution (MHIIb agar), strain UNT189-1; assay type: cell-based; conditions: Helicobacter pylori, 72 h
Method: (§1) (a) Sample Plate Preparation: Aliquots of a 2-fold serial dilution of Hexyl-SerMe-Immucillin A (from 62.5 μg/mL-6.25 μg/mL in DMSO, 0.02 mL) were mixed into separate 2 mL molten MHIIb agar, and poured into separate wells on each well of a 12-well plate, allowed to set for 20-30 minutes and dry in a biosafety cabinet for 10 minutes prior to Inoculation.
(§2) (b) Inoculation: Frozen inoculate stock of H. pylori strains UNT020-1 (Sydney Strain SS1) and UNT189-1 (ATCC43504) was separately streaked onto Columbia+5% sheep blood agar and microaerophilically incubated for 72 h at 37° C. The plate cultures of the H. pylori strains were then harvested in 0.9% sterile saline solution and the OD at 530 nm of the suspension was determined. The OD of each suspension was adjusted to 1.5-2.0 by dilution into 0.9% sterile saline. The UNT020-1 suspension was further diluted 2:5, but the UNT189-1 suspension was not further diluted, and these were used to inoculate the agar plates. Samples of the suspensions (3 μL) were spotted onto the MHIIb agar wells in the 12-well plate. The CFU/mL of each inoculum was confirmed by generating a 10-fold serial dilution of each inoculum in 0.9% sterile saline and spotting 8 μL of each dilution onto Columbia+5% sheep blood agar plates. After allowing the spots to dry for 10 min, the plates were placed into a microaerophilic chamber and incubated at 37° C. for 72 h.

[3] = system: H. pylori UNT020-1 (Sydney Strain SS1); experiment: MIC by agar dilution (MHIIb agar), strain UNT020-1; assay type: cell-based; conditions: Helicobacter pylori, 72 h
Method: as §1, §2

[4] = female, read-out: concentration in gastric mucin, Animal-1
[5] = female, read-out: concentration in gastric mucin, Animal-2
[6] = female, read-out: concentration in gastric mucin, Animal-3
[7] = female, read-out: concentration in gastric mucin, Mean

CCCCCC[C@@H](CO)NCc1c[nH]c2c(N)ncnc12 [Hexyl-SerMe-Immucillin A, (2S)-2-[({4-Amino-5H-pyrrolo[3,2-d]pyrimidin-7-yl}methyl)amino]octan-1-ol]
concentration at 0.25 h [1, 4]: 60400 ng/g
concentration at 0.25 h [1, 5]: 64400 ng/g
concentration at 0.25 h [1, 6]: 45900 ng/g
concentration at 0.25 h [1, 7]: 56900 ng/g
concentration at 0.5 h [1, 4]: 46200 ng/g
concentration at 0.5 h [1, 5]: 90200 ng/g
concentration at 0.5 h [1, 6]: 60200 ng/g
concentration at 0.5 h [1, 7]: 65500 ng/g
concentration at 1 h [1, 4]: 20400 ng/g
concentration at 1 h [1, 5]: 12200 ng/g
concentration at 1 h [1, 6]: 12000 ng/g
concentration at 1 h [1, 7]: 14900 ng/g
concentration at 2 h [1, 4]: 2020 ng/g
concentration at 2 h [1, 5]: 1080 ng/g
concentration at 2 h [1, 6]: 16200 ng/g
concentration at 2 h [1, 7]: 6440 ng/g
concentration at 4 h [1, 4]: 670 ng/g
concentration at 4 h [1, 5]: 3740 ng/g
concentration at 4 h [1, 6]: 910 ng/g
concentration at 4 h [1, 7]: 1770 ng/g
concentration at 8 h [1, 4]: 650 ng/g
concentration at 8 h [1, 5]: 1620 ng/g
concentration at 8 h [1, 6]: 530 ng/g
concentration at 8 h [1, 7]: 930 ng/g
concentration at 12 h [1, 4]: 960 ng/g
concentration at 12 h [1, 5]: 950 ng/g
concentration at 12 h [1, 6]: 330 ng/g
concentration at 12 h [1, 7]: 740 ng/g
concentration at 24 h [1, 4]: 540 ng/g
concentration at 24 h [1, 5]: 390 ng/g
concentration at 24 h [1, 6]: 300 ng/g
concentration at 24 h [1, 7]: 410 ng/g
Cmax ([1]; female, C57/BL6, mouse gastric mucin, 10 mg/kg oral gavage): 65500 ng/g
half-life ([1]; female, C57/BL6, mouse gastric mucin, 10 mg/kg oral gavage, read-out: terminal half-life (converted)): 163 min
total exposure [AUC(0-inf)] ([1]; mouse gastric mucin, 10 mg/kg oral gavage): 78.6 µg·h/g
MIC [2]: 1.9 ng/mL (≈ 6.52 nM)
MIC [3]: 1.9 ng/mL (≈ 6.52 nM)
